Laboratory results reported in the NIST ThermoML archive (doi:10.1016/j.jct.2015.05.005).
Numbers after ± are expanded uncertainties.

Conditions: Liquid mixture 1, Pendant drop shape

Which interfacial tension (298.4 K, 6830 kPa) does the source give for `O=C=O` [carbon dioxide] + O here?
The interfacial tension was 31 ± 0.49 mN/m.

What about the interfacial tension (298.5 K, 7200 kPa) of the same compound?
Its interfacial tension is 30.99 ± 0.4 mN/m.

What about the interfacial tension (298.5 K, 8100 kPa) of the same compound?
The interfacial tension was 31.09 ± 0.33 mN/m.

What about the interfacial tension (298.6 K, 6490 kPa) of the same compound?
Its interfacial tension is 30.79 ± 1.9 mN/m.

And the interfacial tension (298.6 K, 8970 kPa)?
Its interfacial tension is 30.98 ± 0.34 mN/m.

What about the interfacial tension (298.6 K, 10630 kPa) of the same compound?
The interfacial tension was 30.73 ± 0.34 mN/m.

What about the interfacial tension (298.6 K, 13180 kPa) of the same compound?
The interfacial tension was 30.62 ± 0.37 mN/m.

And the interfacial tension (298.6 K, 15150 kPa)?
The interfacial tension was 30.81 ± 0.42 mN/m.

What about the interfacial tension (298.6 K, 20830 kPa) of the same compound?
Its interfacial tension is 29.84 ± 0.49 mN/m.
